Laboratory results: patent US20020177621A1, “Antifungal fragrance composition” (priority 2000, published 2002)
“And” between values parts separate entries of the source, which are not always exact repeats. Identical values can stand only once. “Also recorded” adds a separate entry of the source.

Tests used:
Assay type in all cases: cell-based
[1] = tested on: Aspergillus niger IFO 9455 (An-1); assay: Fragrant vapor antifungal activity (impregnated paper disc on cover of inverted agar plate); conditions: 72 hours at 27° C.; for IZ: Diameter of growth inhibition zone: 20 μl fragrance (or 40 μl of 50% ethanol solution) on disc, >85 = growth inhibited over entire plate; for Growth: Growth status outside the inhibition zone: compared with control
Procedure: (§1) Physiological saline containing 0.05% Tween-80 was added to a slant on which the test organism grew well, and a spore suspension was produced at 1×10^6 CFU (Colony Forming Units)/ml in accordance with ordinary methods. Potato dextrose agar (PDA: Nissui Pharmaceutical) was used for the medium. To begin with, 10 ml of sterile PDA was pipetted into a Petri dish and after it solidified, another 6 ml of PDA containing 1% of the above described spore suspension was overlaid and solidified to prepare the test agar plate. For the fragrance sample, if the sample is in the form of liquid at ordinary temperatures, 20 μl of liquid was directly impregnated into a paper disc (Advantech, diameter: 8 mm, thick material), while a 50% by weight ethanol solution was prepared for crystals or powder, and 40 μl of that solution was then impregnated into the paper disc.
(§2) The test agar plate was placed inversely, and the paper disc impregnated with the fragrance sample was placed in the center of the cover of the agar plate, followed by incubating for 72 hours at 27° C. Evaluation was made based on the diameter (mm) of the mold growth inhibition zone. When mold growth was inhibited over the entire surface of the agar plate, the diameter of the growth inhibition zone was reported as >85 mm. At locations where mold grew outside the inhibition zone, the diameter of the spore formation inhibition zone and the degree of growth were recorded by comparing with a control. The molds used in the test are shown in Table 1, wherein these molds consist of mold species that are isolated at high frequencies from rooms and bath rooms.
(§3) The amount of blended fragrance added to the paper discs was 20 μl each, and only the diameter of the inhibition zone (mm) is indicated for the results.

[2] = tested on: Aureobasidium pullulans IFO 6353 (Ap-1); assay: as above; conditions: 72 hours at 27° C.; for IZ: Diameter of growth inhibition zone: 20 μl fragrance (or 40 μl of 50% ethanol solution) on disc, >85 = growth inhibited over entire plate; for Growth: Growth status outside the inhibition zone: 20 μl fragrance on disc, compared with control
Procedure: as §1, §2, §3

[3] = tested on: Cladosporium cladosporioides IFO 6348 (Cc-1); assay: as above; conditions: 72 hours at 27° C.; for IZ: Diameter of growth inhibition zone: 20 μl fragrance (or 40 μl of 50% ethanol solution) on disc, >85 = growth inhibited over entire plate; for Growth: Growth status outside the inhibition zone: 20 μl fragrance on disc, compared with control
Procedure: as §1, §2, §3

An-1 (Aspergillus niger) = assay: Confirmation of synergistic action of two fragrances (vapor, paper disc); conditions: for Additive effect: second fragrance that shows additive action with the fragrance component: combined IZ intermediate; for IZ (diameter of growth inhibition zone) / Growth (growth status outside the inhibition zone) / SI (diameter of spore formation inhibition zone): 72 hours at 27° C.; for IZ (diameter of growth inhibition zone): sample amount on disc: citral 2 μl, benzaldehyde 10 μl, dimethyl tetrahydrobenzaldehyde 20 μl, geraniol 10 μl, octyl aldehyde 20 μl, 9-decen-1-ol 0.5 μl, trans-2-undecenal 3 μl, phenylacetaldehyde 5 μl, A + B = both amounts on one disc; for Growth (growth status outside the inhibition zone): sample amounts as in Table 3 (citral 2 μl, benzaldehyde 10 μl, dimethyl tetrahydrobenzaldehyde 20 μl, geraniol 10 μl, octyl aldehyde 20 μl, 9-decen-1-ol 0.5 μl, trans-2-undecenal 3 μl, phenylacetaldehyde 5 μl; A + B = both); for SI (diameter of spore formation inhibition zone): sample amounts as in Table 3 (citral 2 μl, benzaldehyde 10 μl, dimethyl tetrahydrobenzaldehyde 20 μl, geraniol 10 μl, octyl aldehyde 20 μl, trans-2-undecenal 3 μl, phenylacetaldehyde 5 μl; A + B = both); for Synergistic effect: second fragrance that shows synergistic action with the fragrance component: combined IZ 20 mm or more larger than sum of single IZ
Procedure: An agar plate prepared according to the method of Example 1 was used while using An-1 (Aspergillus niger) for the test fungi. […] 10 μl of the ethanol containing the Table 3 prescribed amount of the fragrance was impregnated into a paper disc. The test agar plate was placed inversely, and the paper disc impregnated with each fragrance alone and a paper disc simultaneously impregnated with two types of fragrances were placed in the center of the cover, followed by incubating for 72 hours at 27° C. and measuring the diameters of the resulting growth inhibition zones.
The results obtained as in Example 2 with other combinations are shown in Tables 4 through 7 as combination examples of respective synergistic, additive and antagonistic actions for each fragrant chemical product (a). […] It should be noted that in order to make the table smaller, combinations that have already been listed once are not listed in other columns of the tables.

Question: How did the “IZ: Diameter of growth inhibition zone” value [1] turn out when `CC(C)=CCCC(C)CC=O` (centres unmarked) [Citronellal] was run?
Answer: Its value is 15 mm.

Question: What about the “Growth: Growth status outside the inhibition zone” value ([1]; 20 μl fragrance on disc) of the same compound?
Answer: The value was “weak”.

Question: And the “IZ: Diameter of growth inhibition zone” value [2]?
Answer: The value was greater than 85 mm.

Question: What about the “Growth: Growth status outside the inhibition zone” value [2] of the same compound?
Answer: The value was “sparse”.

Question: What about the “IZ: Diameter of growth inhibition zone” value [3] of the same compound?
Answer: Its value is greater than 85 mm.

Question: And the “Growth: Growth status outside the inhibition zone” value [3]?
Answer: Its value is “sparse”.

Question: And the “Additive effect: second fragrance that shows additive action with the fragrance component” value (shortened to “Additive effect”) (An-1 (Aspergillus niger); value = combination partner)?
Answer: The value was “Thymol, and 1-Decanol, and Citronellol”.

Question: Which “IZ: Diameter of growth inhibition zone” value [1] does the source give for `CC(C)=CCCC(C)=CC=O` [Citral] here?
Answer: The value was greater than 85 mm.

Question: What about the “Growth: Growth status outside the inhibition zone” value ([1]; 20 μl fragrance on disc) of the same compound?
Answer: Its value is “none”.

Question: What about the “IZ: Diameter of growth inhibition zone” value [2] of the same compound?
Answer: The value was greater than 85 mm.

Question: What about the “Growth: Growth status outside the inhibition zone” value [2] of the same compound?
Answer: The value was “none”.

Question: And the “IZ: Diameter of growth inhibition zone” value [3]?
Answer: Its value is greater than 85 mm.

Question: What about the “Growth: Growth status outside the inhibition zone” value [3] of the same compound?
Answer: Its value is “none”.

Question: And the “IZ (diameter of growth inhibition zone)” value (An-1 (Aspergillus niger))?
Answer: The value was 0 mm.

Question: And the “Growth (growth status outside the inhibition zone)” value (An-1 (Aspergillus niger))?
Answer: The value was “weak”.

Question: And the “SI (diameter of spore formation inhibition zone)” value (An-1 (Aspergillus niger))?
Answer: The value was 20 mm.

Question: For `C=CCCCCCCCCO` [Example 9-Decen-1-ol, 9-Decen-1-ol], which “IZ: Diameter of growth inhibition zone” value [1] is on record?
Answer: The value was greater than 85 mm.

Question: And the “Growth: Growth status outside the inhibition zone” value ([1]; 20 μl fragrance on disc)?
Answer: Its value is “none”.

Question: What about the “IZ: Diameter of growth inhibition zone” value [2] of the same compound?
Answer: Its value is 65 mm.

Question: And the “Growth: Growth status outside the inhibition zone” value [2]?
Answer: Its value is “weak”.

Question: And the “IZ: Diameter of growth inhibition zone” value [3]?
Answer: The value was greater than 85 mm.

Question: And the “Growth: Growth status outside the inhibition zone” value [3]?
Answer: Its value is “none”.

Question: What about the “IZ (diameter of growth inhibition zone)” value (An-1 (Aspergillus niger)) of the same compound?
Answer: The value was 0 mm.

Question: What about the “Growth (growth status outside the inhibition zone)” value (An-1 (Aspergillus niger)) of the same compound?
Answer: Its value is “weak”.

Question: What about the “Synergistic effect: second fragrance that shows synergistic action with the fragrance component” value (from here on “Synergistic effect”) (An-1 (Aspergillus niger); value = combination partner) of the same compound?
Answer: The value was 1-Decanol.

Question: What about the “Additive effect” value (An-1 (Aspergillus niger); value = combination partner) of the same compound?
Answer: The value was “Thymol”.

Question: For `O=Cc1ccco1` [Furfural], which “IZ: Diameter of growth inhibition zone” value [1] is on record?
Answer: Its value is greater than 85 mm.

Question: What about the “Growth: Growth status outside the inhibition zone” value ([1]; 20 μl fragrance on disc) of the same compound?
Answer: Its value is “none”.

Question: What about the “IZ: Diameter of growth inhibition zone” value [2] of the same compound?
Answer: Its value is greater than 85 mm.

Question: What about the “Growth: Growth status outside the inhibition zone” value [2] of the same compound?
Answer: The value was “none”.

Question: What about the “IZ: Diameter of growth inhibition zone” value [3] of the same compound?
Answer: The value was greater than 85 mm.

Question: What about the “Growth: Growth status outside the inhibition zone” value [3] of the same compound?
Answer: The value was “none”.

Question: What about the “Synergistic effect” value (An-1 (Aspergillus niger); value = combination partner) of the same compound?
Answer: The value was “Citronellal; also recorded: hexenal, Octyl aldehyde,; also recorded: Trans-2-undecenal,; also recorded: Cumin aldehyde,; also recorded: Geraniol; also recorded: Citronellol; also recorded: Thymol”.

Question: For `CCCCCCCC=O` [Octyl aldehyde], which “IZ: Diameter of growth inhibition zone” value [1] is on record?
Answer: Its value is 10 mm.

Question: And the “SI: Diameter of spore formation inhibition zone” value ([1]; 20 μl fragrance on disc)?
Answer: The value was greater than 85 mm.

Question: And the “Growth: Growth status outside the inhibition zone” value ([1]; 20 μl fragrance on disc)?
Answer: The value was “weak”.

Question: What about the “IZ: Diameter of growth inhibition zone” value [2] of the same compound?
Answer: The value was greater than 85 mm.

Question: And the “Growth: Growth status outside the inhibition zone” value [2]?
Answer: The value was “none”.

Question: What about the “IZ: Diameter of growth inhibition zone” value [3] of the same compound?
Answer: Its value is greater than 85 mm.

Question: What about the “Growth: Growth status outside the inhibition zone” value [3] of the same compound?
Answer: Its value is “none”.

Question: What about the “IZ (diameter of growth inhibition zone)” value (An-1 (Aspergillus niger)) of the same compound?
Answer: The value was 10 mm.

Question: What about the “Growth (growth status outside the inhibition zone)” value (An-1 (Aspergillus niger)) of the same compound?
Answer: The value was “weak”.

Question: What about the “SI (diameter of spore formation inhibition zone)” value (An-1 (Aspergillus niger)) of the same compound?
Answer: Its value is 35 mm.

Question: And the “Synergistic effect” value (An-1 (Aspergillus niger); value = combination partner)?
Answer: Its value is “Cumin aldehyde”.

Question: What about the “Antagonistic effect: second fragrance that shows antagonistic action with the fragrance component” value (An-1 (Aspergillus niger); value = combination partner, combined IZ 20 mm or more smaller than sum of single IZ) of the same compound?
Answer: Its value is “Citronellol”.

Question: What about the “Additive effect” value (An-1 (Aspergillus niger); value = combination partner) of the same compound?
Answer: The value was 1-Decanol and Thymol, and Anisaldehyde, and Geraniol,.

Question: How did the “IZ: Diameter of growth inhibition zone” value [1] turn out when `C=CCCCCCCCCC=O` [10-undecen-1-al] was run?
Answer: The value was greater than 85 mm.

Question: What about the “Growth: Growth status outside the inhibition zone” value ([1]; 20 μl fragrance on disc) of the same compound?
Answer: The value was “none”.

Question: What about the “IZ: Diameter of growth inhibition zone” value [2] of the same compound?
Answer: Its value is greater than 85 mm.

Question: And the “Growth: Growth status outside the inhibition zone” value [2]?
Answer: The value was “sparse”.

Question: What about the “IZ: Diameter of growth inhibition zone” value [3] of the same compound?
Answer: The value was greater than 85 mm.

Question: What about the “Growth: Growth status outside the inhibition zone” value [3] of the same compound?
Answer: The value was “sparse”.

Question: What about the “Additive effect” value (An-1 (Aspergillus niger); value = combination partner) of the same compound?
Answer: The value was “Furfural,; also recorded: Geraniol”.
